From patent US12258344B2, “Azaaromatic amide derivatives for the treatment of cancer” (SHENZHEN FORWARD PHARMACEUTICALS CO., LTD., priority 2019, dated 2025)

How the values were obtained:
Assay type in all cases: cell-based
BaF3 (EGFR-V769insASV) = BaF3 (EGFR-V769insASV) (Homo sapiens, UniProt P00533, DUP767-769, cells depend on it); assay: Test 4: BaF3 (EGFR-V769insASV) cell proliferation test; settings: 72 hours, Cell Titer-Glo, read-out: Test 4 - IC50
Procedure: Test 4: BaF3 (EGFR-V769insASV) Cell Proliferation Test
BaF3 (EGFR-V769insASV) was cultured in RPMI1640 medium containing 10% fetal bovine serum and 2 mM glutamine. The cells were grown at 37° C. in a humidified incubator with 5% CO2.
(§1) The number of viable cells in the culture was measured according to the protocol described in Promega's Cell Titer-Glo Luminescent cell Viability Assay (Promega catalog number #G7570). 90 μl of cells (3,000 cells/well) were cultured in growth medium in a Corning black transparent bottom 96-well plate, and cultured in a 5% CO2 humidified incubator at 37° C. overnight. The compound serially diluted in 100% DMSO was added to the cells using a pipette, and the cells were incubated for another 72 hours. 100 μl of the mixed Cell Titer-Glo reagent was added to the cells in the 96-well culture plate to lyse the cells and mix gently. Subsequently, the […] was detected on the Envision microplate detector to obtain the data of each compound. Finally, the data was input into a suitable software package (such as Prism) for curve fitting analysis.

[1] = tested on: NCI-H1975 (EGFR L858R/T790M double mutant); assay: Test 1: EGFR L858R/T790M (EGFR double mutant) cell proliferation test; settings: Homo sapiens; NCI-H1975 cells, 72 hours, Cell Titer-Glo
Procedure: Test 1: EGFR L858R/T790M (EGFR Double Mutant) Cell Proliferation Test
The human lung cell line NCI-H1975 (EGFR L858R/T790M double mutant) was obtained from the American Type Culture Collection. NCI-H1975 cells were cultured in RPMI1640 medium containing 10% fetal bovine serum and 2 mM glutamine. The cells were grown at 37° C. in a humidified incubator with 5% CO2.
as §1, with “(8,000” for “(3,000”

BaF3 (EGFR-D770insSVD) = BaF3 (EGFR-D770insSVD) (Homo sapiens, UniProt P00533, DUP768-770, cells depend on it); assay: Test 2: BaF3 (EGFR-D770insSVD) cell proliferation test; settings: 72 hours, Cell Titer-Glo, read-out: Test 2 - IC50
Sequence of BaF3 (EGFR-D770insSVD) (P00533 with tags, fused parts or gaps DUP768-770): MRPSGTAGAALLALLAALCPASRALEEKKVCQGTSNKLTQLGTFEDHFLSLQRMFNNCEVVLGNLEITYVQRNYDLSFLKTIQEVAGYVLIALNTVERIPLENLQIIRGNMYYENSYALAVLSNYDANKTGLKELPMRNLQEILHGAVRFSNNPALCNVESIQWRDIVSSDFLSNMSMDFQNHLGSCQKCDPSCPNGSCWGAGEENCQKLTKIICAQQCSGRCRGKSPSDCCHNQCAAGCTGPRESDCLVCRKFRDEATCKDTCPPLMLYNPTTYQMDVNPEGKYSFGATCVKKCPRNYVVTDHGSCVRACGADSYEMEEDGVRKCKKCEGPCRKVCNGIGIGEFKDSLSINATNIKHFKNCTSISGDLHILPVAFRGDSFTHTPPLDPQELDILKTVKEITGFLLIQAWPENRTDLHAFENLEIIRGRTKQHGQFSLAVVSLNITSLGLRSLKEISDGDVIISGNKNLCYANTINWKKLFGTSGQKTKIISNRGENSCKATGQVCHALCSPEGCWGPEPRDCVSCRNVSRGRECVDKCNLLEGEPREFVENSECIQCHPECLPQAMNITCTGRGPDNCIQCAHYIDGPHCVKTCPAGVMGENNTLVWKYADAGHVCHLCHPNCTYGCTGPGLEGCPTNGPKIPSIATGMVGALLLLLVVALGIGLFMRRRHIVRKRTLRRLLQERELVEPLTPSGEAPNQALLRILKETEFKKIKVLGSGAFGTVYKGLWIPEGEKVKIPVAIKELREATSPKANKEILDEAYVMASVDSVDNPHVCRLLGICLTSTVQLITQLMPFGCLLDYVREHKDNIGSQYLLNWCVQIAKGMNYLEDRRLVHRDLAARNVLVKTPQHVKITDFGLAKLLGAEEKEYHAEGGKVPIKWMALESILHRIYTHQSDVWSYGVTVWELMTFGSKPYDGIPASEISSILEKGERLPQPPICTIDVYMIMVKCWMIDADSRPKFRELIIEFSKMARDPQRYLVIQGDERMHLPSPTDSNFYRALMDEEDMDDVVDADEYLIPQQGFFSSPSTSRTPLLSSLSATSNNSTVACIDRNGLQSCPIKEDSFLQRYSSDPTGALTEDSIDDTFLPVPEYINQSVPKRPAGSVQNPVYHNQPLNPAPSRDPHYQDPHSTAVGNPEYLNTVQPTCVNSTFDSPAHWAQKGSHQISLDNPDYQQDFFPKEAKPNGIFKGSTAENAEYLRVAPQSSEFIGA
Procedure: Test 2: BaF3 (EGFR-D770insSVD) Cell Proliferation Test
BaF3 (EGFR-D770insSVD) was cultured in RPMI1640 medium containing 10% fetal bovine serum and 2 mM glutamine. The cells were grown at 37° C. in a humidified incubator with 5% CO2.
as §1

BaF3 (EGFR/D770insSVD) [2] = biological target: T1, BaF3 (EGFR/D770insSVD) (Homo sapiens, UniProt P00533, cells depend on it, form not given); assay: Test 13: EGFR exon 20 inserted D770insSVD cell proliferation test; settings: A763insFQEA, V769insASV, D770insSVD (tests 13-15), in words
T1 construct: other: A763insFQEA, V769ins
T1 sequence (P00533 25-1210 limits assumed, stated change not applied): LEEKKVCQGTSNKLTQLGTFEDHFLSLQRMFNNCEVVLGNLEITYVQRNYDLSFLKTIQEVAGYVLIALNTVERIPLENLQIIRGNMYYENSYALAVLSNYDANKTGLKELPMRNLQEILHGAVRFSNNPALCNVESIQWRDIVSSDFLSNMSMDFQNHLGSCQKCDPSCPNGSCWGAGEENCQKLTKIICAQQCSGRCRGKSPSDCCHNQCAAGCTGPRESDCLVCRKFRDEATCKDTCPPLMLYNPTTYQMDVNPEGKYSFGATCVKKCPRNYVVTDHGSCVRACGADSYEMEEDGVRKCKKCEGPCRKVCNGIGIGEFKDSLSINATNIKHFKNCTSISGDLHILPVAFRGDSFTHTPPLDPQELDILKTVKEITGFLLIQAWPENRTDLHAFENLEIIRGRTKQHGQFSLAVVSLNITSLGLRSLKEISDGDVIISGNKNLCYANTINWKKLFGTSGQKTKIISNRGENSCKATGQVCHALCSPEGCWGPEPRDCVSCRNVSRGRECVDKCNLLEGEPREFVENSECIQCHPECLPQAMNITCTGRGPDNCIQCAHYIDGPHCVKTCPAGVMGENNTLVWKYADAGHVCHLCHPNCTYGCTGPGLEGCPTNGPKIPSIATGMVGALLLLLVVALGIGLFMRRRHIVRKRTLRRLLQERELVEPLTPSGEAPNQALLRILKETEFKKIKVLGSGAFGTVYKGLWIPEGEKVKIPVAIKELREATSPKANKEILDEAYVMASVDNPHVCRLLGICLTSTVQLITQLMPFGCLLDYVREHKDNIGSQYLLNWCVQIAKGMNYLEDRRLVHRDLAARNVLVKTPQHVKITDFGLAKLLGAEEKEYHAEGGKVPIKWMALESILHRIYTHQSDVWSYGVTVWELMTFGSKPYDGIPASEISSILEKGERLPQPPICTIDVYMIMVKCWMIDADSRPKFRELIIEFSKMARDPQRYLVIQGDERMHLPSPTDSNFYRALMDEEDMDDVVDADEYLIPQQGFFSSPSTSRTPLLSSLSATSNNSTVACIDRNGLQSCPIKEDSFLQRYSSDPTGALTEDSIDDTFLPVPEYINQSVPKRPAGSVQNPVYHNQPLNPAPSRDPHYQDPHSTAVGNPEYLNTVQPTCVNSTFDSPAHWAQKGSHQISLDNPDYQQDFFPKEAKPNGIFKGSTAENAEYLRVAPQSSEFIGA
Procedure: (§2) Test 13: EGFR Exon 20 Inserted D770insSVD Cell Proliferation Test
as §1

BaF3 (EGFR-A763insFQEA) = BaF3 (EGFR-A763insFQEA) (Homo sapiens, UniProt P00533, INS763FQEA, cells depend on it); assay: Test 3: BaF3 (EGFR-A763insFQEA) cell proliferation test; settings: 72 hours, Cell Titer-Glo, read-out: Test 3 - IC50
Sequence of BaF3 (EGFR-A763insFQEA) (P00533 with tags, fused parts or gaps INS763FQEA): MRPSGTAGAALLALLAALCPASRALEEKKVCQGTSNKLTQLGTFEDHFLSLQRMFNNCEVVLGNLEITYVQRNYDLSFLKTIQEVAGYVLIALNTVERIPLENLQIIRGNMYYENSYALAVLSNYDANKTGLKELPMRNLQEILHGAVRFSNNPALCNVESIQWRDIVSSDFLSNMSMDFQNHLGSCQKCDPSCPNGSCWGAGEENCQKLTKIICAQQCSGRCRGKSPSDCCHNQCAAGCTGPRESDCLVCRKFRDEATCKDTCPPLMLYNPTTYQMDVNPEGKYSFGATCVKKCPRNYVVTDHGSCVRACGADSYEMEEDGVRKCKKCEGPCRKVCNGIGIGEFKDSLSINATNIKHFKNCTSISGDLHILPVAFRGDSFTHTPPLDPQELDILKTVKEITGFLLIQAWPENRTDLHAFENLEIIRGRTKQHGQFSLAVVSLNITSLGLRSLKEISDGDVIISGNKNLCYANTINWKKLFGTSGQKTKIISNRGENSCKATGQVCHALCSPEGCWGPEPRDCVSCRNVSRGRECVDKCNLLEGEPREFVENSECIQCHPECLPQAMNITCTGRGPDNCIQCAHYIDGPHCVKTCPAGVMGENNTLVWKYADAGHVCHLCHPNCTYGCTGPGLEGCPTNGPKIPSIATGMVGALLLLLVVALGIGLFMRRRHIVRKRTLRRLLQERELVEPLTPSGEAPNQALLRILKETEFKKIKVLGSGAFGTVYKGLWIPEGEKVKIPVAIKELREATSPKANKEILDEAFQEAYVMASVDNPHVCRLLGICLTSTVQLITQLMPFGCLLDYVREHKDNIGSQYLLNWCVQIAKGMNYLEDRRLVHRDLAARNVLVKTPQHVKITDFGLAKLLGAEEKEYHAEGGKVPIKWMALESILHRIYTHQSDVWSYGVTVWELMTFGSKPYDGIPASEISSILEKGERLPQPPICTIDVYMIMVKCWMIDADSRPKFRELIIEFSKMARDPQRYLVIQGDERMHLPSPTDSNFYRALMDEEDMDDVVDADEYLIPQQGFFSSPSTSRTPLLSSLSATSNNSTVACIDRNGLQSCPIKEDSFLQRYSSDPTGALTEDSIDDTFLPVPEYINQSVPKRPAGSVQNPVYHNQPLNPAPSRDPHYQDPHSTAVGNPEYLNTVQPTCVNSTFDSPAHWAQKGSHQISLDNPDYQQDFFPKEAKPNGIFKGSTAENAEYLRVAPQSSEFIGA
Procedure: Test 3: BaF3 (EGFR-A763insFOEA) Cell Proliferation Test
BaF3 (EGFR-A763insFQEA) was cultured in RPMI1640 medium containing 10% fetal bovine serum and 2 mM glutamine. The cells were grown at 37° C. in a humidified incubator with 5% CO2.
as §1

BaF3 (EGFR/A763insFQEA) = BaF3 (EGFR/A763insFQEA) (Homo sapiens, UniProt P00533, INS763FQEA, cells depend on it); assay: Test 14: EGFR exon 20 inserted A763insFQEA cell proliferation test; settings: 72 hours, Cell Titer-Glo, read-out: Test 14 IC50
Procedure: Test 14: EGFR Exon 20 Inserted A763insFQEA Cell Proliferation Test
as §1

BaF3 (EGFR/V769insASV) = BaF3 (EGFR/V769insASV) (Homo sapiens, UniProt P00533, DUP767-769, cells depend on it); assay: Test 15: EGFR exon 20 inserted V769insASV cell proliferation test; settings: 72 hours, Cell Titer-Glo, read-out: Test 15 IC50
Procedure: Test 15: EGFR Exon 20 Inserted V769insASV Cell Proliferation Test
as §1, with “(3000” for “(3,000”

BaF3 (EGFR/D770insSVD) [3] = biological target: T2, BaF3 (EGFR/D770insSVD) (Homo sapiens, UniProt P00533, DUP768-770, cells depend on it); assay: Test 13: EGFR exon 20 inserted D770insSVD cell proliferation test; settings: BaF3 (EGFR/D770insSVD), 72 hours, Cell Titer-Glo; read-out: Test 13 IC50
T2 construct: Test 13 IC50 (nM); other: BaF3 (EGFR/D770insSVD), 72 hours, Cell Titer-Glo
Procedure: as §2, §1

Sequence of BaF3 (EGFR-V769insASV) (P00533 with tags, fused parts or gaps DUP767-769): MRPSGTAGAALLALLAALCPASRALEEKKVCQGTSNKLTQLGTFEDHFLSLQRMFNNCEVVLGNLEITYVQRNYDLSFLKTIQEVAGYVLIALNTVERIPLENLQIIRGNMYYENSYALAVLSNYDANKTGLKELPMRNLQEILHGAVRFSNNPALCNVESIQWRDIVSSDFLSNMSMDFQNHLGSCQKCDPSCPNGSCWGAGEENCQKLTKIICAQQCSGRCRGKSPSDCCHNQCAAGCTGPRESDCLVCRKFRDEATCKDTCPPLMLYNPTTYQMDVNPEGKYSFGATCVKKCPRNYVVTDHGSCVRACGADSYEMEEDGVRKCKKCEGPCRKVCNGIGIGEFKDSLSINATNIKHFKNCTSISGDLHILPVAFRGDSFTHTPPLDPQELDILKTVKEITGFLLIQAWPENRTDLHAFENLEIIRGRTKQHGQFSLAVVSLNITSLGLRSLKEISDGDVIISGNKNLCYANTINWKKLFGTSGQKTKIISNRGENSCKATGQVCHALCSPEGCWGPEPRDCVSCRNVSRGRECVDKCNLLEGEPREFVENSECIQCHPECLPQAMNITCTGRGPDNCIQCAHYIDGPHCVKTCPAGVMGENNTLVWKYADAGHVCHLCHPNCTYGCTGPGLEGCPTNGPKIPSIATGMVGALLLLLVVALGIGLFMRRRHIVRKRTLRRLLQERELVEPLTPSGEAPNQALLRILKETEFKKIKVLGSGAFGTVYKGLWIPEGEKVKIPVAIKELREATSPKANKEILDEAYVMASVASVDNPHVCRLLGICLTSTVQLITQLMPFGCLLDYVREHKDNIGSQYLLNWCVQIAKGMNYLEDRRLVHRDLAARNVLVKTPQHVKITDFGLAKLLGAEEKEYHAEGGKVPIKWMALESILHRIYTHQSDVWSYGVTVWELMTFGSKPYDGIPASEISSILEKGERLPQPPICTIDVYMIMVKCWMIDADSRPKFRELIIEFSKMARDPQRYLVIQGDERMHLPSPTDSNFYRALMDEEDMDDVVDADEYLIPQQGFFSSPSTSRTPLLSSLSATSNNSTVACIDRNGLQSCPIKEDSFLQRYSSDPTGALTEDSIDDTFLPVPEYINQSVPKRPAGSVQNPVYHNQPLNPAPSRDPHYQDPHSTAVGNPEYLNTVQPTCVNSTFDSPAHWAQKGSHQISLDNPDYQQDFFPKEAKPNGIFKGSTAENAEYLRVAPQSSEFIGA

| Structure (SMILES) | GI50 (BaF3 (EGFR-V769insASV)) [µM] | IC50 [1] [µM] | GI50 (BaF3 (EGFR-D770insSVD)) [µM] | GI50 (BaF3 (EGFR-A763insFQEA)) [µM] | GI50 (BaF3 (EGFR/A763insFQEA)) [µM] | GI50 (BaF3 (EGFR/V769insASV)) [µM] | GI50 (BaF3 (EGFR/D770insSVD) [3]) [µM] | cell activity compared with Osimertinib (AZD9291) against EGFR exon 20 insertion mutations (BaF3 (EGFR/D770insSVD) [2]) |
| --- | --- | --- | --- | --- | --- | --- | --- | --- |
| C=CC(=O)Nc1cc(Nc2ncnc(-n3cc(C)c4cnccc43)n2)c(OC)cc1N(C)CCN(C)C [Compound 18, N-(2-((2-(dimethylamino)ethyl)(methyl)amino)-4-methoxy-5-((4-(3-methyl-1H-pyrrolo[3,2-c]pyridin-1-yl)-1,3,5-triazin-2-yl)amino)phenyl)acrylamide] | – | – | – | – | 0.131 | 0.244 | 0.32 | significant superior cell activity over Osimertinib (AZD9291) |
| C=CC(=O)Nc1cc(Nc2nccc(-c3cnc4c(C(F)(F)F)cccn34)n2)c(OC)cc1N(C)CCN(C)C [Example 6, N-(2-((2-(dimethylamino)ethyl)(methyl)amino)-4-methoxy-5-((4-(8-trifluoromethylimidazo[1,2-a]pyridin-3-yl)pyrimidin-2-yl)amino)phenyl)acrylamide] | 0.477 | 0.091 | 0.518 | 0.277 | – | – | – | significant superior cell activity over Osimertinib (AZD9291) |
| C=CC(=O)Nc1cc(Nc2ncnc(-n3ccc4cnccc43)n2)c(OC)cc1N1CC[C@@H]1CN(C)C [Example 1, (R)—N-(5-((4-(1H-pyrrole[3,2-c]pyridin-1-yl)-1,3,5-triazin-2-yl)amino)-2-(2-((dimethylamino)methyl)azetidine-1-yl)-4-methoxyphenyl)acrylamide] | 0.386 | 0.0198 | 0.412 | 0.28 | – | – | – | – |
| C=CC(=O)Nc1cc(Nc2ncnc(N3CC(C)(C)c4ncccc43)n2)c(OC)cc1N(C)CCN(C)C [Compound 17, N-(5-((4-(3,3-dimethyl-2,3-dihydro-1H-pyrrolo[3,2-b]pyridin-1-yl)-1,3,5-triazin-2-yl)amino)-2-((2-(dimethylamino)ethyl)(methyl)amino)-4-methoxyphenyl)acrylamide] | – | – | – | – | 0.0147 | 0.0364 | 0.058 | significant superior cell activity over Osimertinib (AZD9291) |

Now from value to molecule, other results behind:

| GI50 (BaF3 (EGFR-V769insASV)) [µM] | IC50 [1] [µM] | GI50 (BaF3 (EGFR-D770insSVD)) [µM] | GI50 (BaF3 (EGFR-A763insFQEA)) [µM] | GI50 (BaF3 (EGFR/A763insFQEA)) [µM] | GI50 (BaF3 (EGFR/V769insASV)) [µM] | GI50 (BaF3 (EGFR/D770insSVD) [3]) [µM] | Structure (SMILES) | cell activity compared with Osimertinib (AZD9291) against EGFR exon 20 insertion mutations (BaF3 (EGFR/D770insSVD) [2]) |
| --- | --- | --- | --- | --- | --- | --- | --- | --- |
| 0.148 | 0.0195 | 0.144 | 0.0426 | – | – | – | C=CC(=O)Nc1cc(Nc2nccc(-c3cnc4c(F)cccn34)n2)c(OC)cc1N(C)CCN(C)C [Example 5, N-(2-((2-(dimethylamino)ethyl)(methyl)amino)-5-((4-(8-fluoroimidazo[1,2-a]pyridin-3-yl)pyrimidin-2-yl)amino)-4-methoxyphenyl)acrylamide] | significant superior cell activity over Osimertinib (AZD9291) |
| 0.47 | 0.0667 | 0.592 | 0.313 | – | – | – | C=CC(=O)Nc1cc(Nc2nccc(-c3cnc4c(I)cccn34)n2)c(OC)cc1N(C)CCN(C)C [Example 4, N-(2-((2-(dimethylamino)ethyl)(methyl)amino)-4-methoxy-5-((4-(8-iodoimidazo[1,2-a]pyridin-3-yl)pyrimidin-2-yl)amino)phenyl)acrylamide] | significant superior cell activity over Osimertinib (AZD9291) |
